Measured values published in PubChem BioAssay (NCI).
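Five concentrations, 48 hours, 96-well plates. Abbreviation: GI50, concentration required for 50% inhibition of growth. TGI is the concentration that stops growth completely.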

Each compound was assayed on SNB-75 CNS (assay: NCI anticancer screen, dose series, 48 h).

Row | SMILES | TGI
1 | CN(C)CCC(/C=C/c1ccccc1)=N\Nc1ccccc1 | 13.7 µM
2 | CCOC(=O)c1ccc(/C(C)=N/NC(N)=S)cc1 | > 100 µM
3 | c1ccc2c(OCCSCCCCCCCCCCSCCOc3cccc4ccccc34)cccc2c1 | > 100 µM
4 | Cc1cc2c(=O)c3ccccc3[nH]c2c(C(N)=O)c1C | > 100 µM
5 | CN1CCC(=O)/C(=C/c2ccccc2)C1 | 20.8 µM

These compounds were tested on SW-620 colon (assay: NCI anticancer screen, dose series, 48 h).

Row | SMILES | TGI | GI50
6 | COC(=O)C(=Cc1cc(OC)c(OC)c(OC)c1-c1cc2c(cc1C1(C)OCCS1)OCO2)C(=O)OC (stereo unspecified) | > 100 µM | 
7 | C#CC1/C(=C\C(=O)OC)CCCC1O (stereo unspecified) | > 100 µM | 
8 | CC12CCC(=O)C[C@H]1CCC(OC=O)C2Br (stereo partly specified) | > 100 µM | 
9 | COc1ccc(-c2nnc3n(C)c(=O)c4ccccc4n23)cc1N | > 100 µM | 0.0523 µM
10 | COc1cnc2c(c1)C(=O)c1c-2n(CCCNC2=NCCS2)c(=O)c2cc([N+](=O)[O-])ccc12 | 1.84 µM | 0.0139 µM
11 | COc1ccc(OCC(=O)O)c2c1CCCC2=O | > 100 µM | 
12 | Cc1nc(Nc2ccc(Cl)cc2)sc1C(=O)NNC(=S)NN | 38.1 µM | 
13 | COc1ccc2c(c1OCC(=O)O)C(=O)C(CCC(=O)O)CC2 (stereo unspecified) | > 100 µM | 
14 | Cc1ccc2nc(/C(=C/c3ccc(/C=C(\NC(=O)c4ccccc4)c4nc5ccc(C)cc5[nH]4)c(C)c3)NC(=O)c3ccccc3)[nH]c2c1 | > 100 µM | 
15 | COC1C(OC(=S)Nc2ccccc2)c2ccccc2N1C(C)=O (stereo unspecified) | > 100 µM | 
16 | Cc1nc(Nc2cccnc2)sc1C(=O)/C=C/c1ccc(F)cc1 | 6.46 µM | 2.46 µM
17 | O=C(Nc1cccc(Cl)c1)C(=O)C(C(=O)c1ccc2ccccc2c1)C1OC(=O)c2ccccc21 (stereo unspecified) | 80.9 µM | 
18 | CC1=Cc2cccc(C)c2C(=O)C1=O | 10.3 µM | 
19 | Cc1ccc(C)c(NC(=O)c2cccc([N+](=O)[O-])c2O)c1 | > 100 µM | 
20 | COCC(OC)C(CC=C(C#N)C#N)OC (stereo unspecified) | > 100 µM | 
21 | On1c(-c2ccccc2)c(-c2ccccc2N2CCCC2)c2ccccc21 | > 100 µM | 
22 | N#CC(C(=O)/C(=N\NC(N)=O)C(C#N)c1ccc(Cl)cc1)c1ccc(Cl)cc1 (stereo unspecified) | > 100 µM | 

Row | SMILES | TGI | GI50
23 | CC(C)(C)c1cc(C(P(=O)(O)O)P(=O)(O)O)cc(C(C)(C)C)c1O | > 100 µM | 
24 | CC(C)C1=Cc2ccc3c(c2C(=O)C1=O)CCCC3(C)C | 10.2 µM | 
25 | CSc1nc(SC)c2c(C#N)[nH]nc2n1 | > 100 µM | 
26 | COc1c(O)c2c(=O)cc3c4c5c(cc(=O)c6c(O)c(OC)c(CC(C)O)c(c(c1CC(C)O)c24)c65)OCO3 (stereo unspecified) | 8.65 µM | 
27 | COc1ccc(CCN(C)C2CCC(C#N)(c3ccc(OC)c(OC)c3)CC2)cc1OC (stereo unspecified) | > 100 µM | 
28 | CCOC(=O)c1nc2c(OC)nn(O)cc-2c1[N+](=O)[O-] | 29.1 µM | 
29 | COC(=O)/C(=N\NC(N)=S)C(C(=O)OC)C(=O)C(=O)Nc1ccc(C)cc1 (stereo unspecified) | > 100 µM | 
30 | O=C(OC1CCC(=C2SCCCS2)[C@H]1C1SCCCS1)c1ccccc1 (stereo partly specified) | > 100 µM | 
31 | O=C1CCC2(c3ccc(Cl)cc3)Nc3cc(Cl)ccc3N12 (stereo unspecified) | 19.6 µM | 
32 | O=C(/C(=C/c1ccc(Cl)cc1)c1ccccc1)c1ccccc1 | 31.6 µM | 
33 | CC1(C)COC(c2cccc3c2C(=O)c2cccc(Cl)c2-3)=N1 | > 100 µM | 
34 | CN(C)CCC(/C=C/c1ccccc1)=N\Nc1ccccc1 | 2.06 µM | 
35 | CCOC(=O)c1ccc(/C(C)=N/NC(N)=S)cc1 | > 100 µM | 
36 | c1ccc2c(OCCSCCCCCCCCCCSCCOc3cccc4ccccc34)cccc2c1 | > 100 µM | 
37 | Cc1cc2c(=O)c3ccccc3[nH]c2c(C(N)=O)c1C | > 100 µM | 
38 | CN1CCC(=O)/C(=C/c2ccccc2)C1 | 14.1 µM | 

The compounds below were run on U251 CNS (assay: NCI anticancer screen, dose series, 48 h).

Row | SMILES | TGI | GI50
39 | COC(=O)C(=Cc1cc(OC)c(OC)c(OC)c1-c1cc2c(cc1C1(C)OCCS1)OCO2)C(=O)OC (stereo unspecified) | > 100 µM | 
40 | C#CC1/C(=C\C(=O)OC)CCCC1O (stereo unspecified) | > 100 µM | 
41 | CC12CCC(=O)C[C@H]1CCC(OC=O)C2Br (stereo partly specified) | > 100 µM | 
42 | COc1ccc(-c2nnc3n(C)c(=O)c4ccccc4n23)cc1N | > 100 µM | 1.63 µM
43 | COc1ccc(OCC(=O)O)c2c1CCCC2=O | > 100 µM | 
44 | Cc1nc(Nc2ccc(Cl)cc2)sc1C(=O)NNC(=S)NN | 32.3 µM | 
45 | COc1ccc2c(c1OCC(=O)O)C(=O)C(CCC(=O)O)CC2 (stereo unspecified) | > 100 µM | 
46 | Cc1ccc2nc(/C(=C/c3ccc(/C=C(\NC(=O)c4ccccc4)c4nc5ccc(C)cc5[nH]4)c(C)c3)NC(=O)c3ccccc3)[nH]c2c1 | 60.2 µM | 
47 | COC1C(OC(=S)Nc2ccccc2)c2ccccc2N1C(C)=O (stereo unspecified) | > 100 µM | 
48 | Cc1nc(Nc2cccnc2)sc1C(=O)/C=C/c1ccc(F)cc1 | 8.83 µM | 2.95 µM
49 | O=C(Nc1cccc(Cl)c1)C(=O)C(C(=O)c1ccc2ccccc2c1)C1OC(=O)c2ccccc21 (stereo unspecified) | 21.2 µM | 
50 | CC1=Cc2cccc(C)c2C(=O)C1=O | 41 µM | 
51 | Cc1ccc(C)c(NC(=O)c2cccc([N+](=O)[O-])c2O)c1 | > 100 µM | 
52 | COCC(OC)C(CC=C(C#N)C#N)OC (stereo unspecified) | > 100 µM | 
53 | On1c(-c2ccccc2)c(-c2ccccc2N2CCCC2)c2ccccc21 | > 100 µM | 
54 | N#CC(C(=O)/C(=N\NC(N)=O)C(C#N)c1ccc(Cl)cc1)c1ccc(Cl)cc1 (stereo unspecified) | > 100 µM | 
55 | CC(C)(C)c1cc(C(P(=O)(O)O)P(=O)(O)O)cc(C(C)(C)C)c1O | > 100 µM | 

Row | SMILES | TGI | GI50
56 | CC(C)C1=Cc2ccc3c(c2C(=O)C1=O)CCCC3(C)C | 27.2 µM | 
57 | CSc1nc(SC)c2c(C#N)[nH]nc2n1 | > 100 µM | 
58 | COc1c(O)c2c(=O)cc3c4c5c(cc(=O)c6c(O)c(OC)c(CC(C)O)c(c(c1CC(C)O)c24)c65)OCO3 (stereo unspecified) | 4.08 µM | 
59 | COc1ccc(CCN(C)C2CCC(C#N)(c3ccc(OC)c(OC)c3)CC2)cc1OC (stereo unspecified) | > 100 µM | 
60 | CCOC(=O)c1nc2c(OC)nn(O)cc-2c1[N+](=O)[O-] | 30.8 µM | 
61 | C/C(CC(=O)Nc1ccc(C)c(C)c1)=N\N(c1ccccc1)c1ccccc1 | 30.5 µM | 
62 | COC(=O)/C(=N\NC(N)=S)C(C(=O)OC)C(=O)C(=O)Nc1ccc(C)cc1 (stereo unspecified) | > 100 µM | 
63 | O=C(OC1CCC(=C2SCCCS2)[C@H]1C1SCCCS1)c1ccccc1 (stereo partly specified) | > 100 µM | 
64 | O=C1CCC2(c3ccc(Cl)cc3)Nc3cc(Cl)ccc3N12 (stereo unspecified) | 24.3 µM | 
65 | O=C(/C(=C/c1ccc(Cl)cc1)c1ccccc1)c1ccccc1 | 33.9 µM | 
66 | CC1(C)COC(c2cccc3c2C(=O)c2cccc(Cl)c2-3)=N1 | > 100 µM | 
67 | CN(C)CCC(/C=C/c1ccccc1)=N\Nc1ccccc1 | 4.58 µM | 
68 | CCOC(=O)c1ccc(/C(C)=N/NC(N)=S)cc1 | > 100 µM | 
69 | c1ccc2c(OCCSCCCCCCCCCCSCCOc3cccc4ccccc34)cccc2c1 | > 100 µM | 
70 | Cc1cc2c(=O)c3ccccc3[nH]c2c(C(N)=O)c1C | > 100 µM | 
71 | CN1CCC(=O)/C(=C/c2ccccc2)C1 | 19.1 µM | 
